Source: PubChem BioAssay (NCI)
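Each compound was tested at five concentrations against cells in 96-well plates for 48 hours. GI50 marks 50% less growth. TGI is the concentration that stops growth completely.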

What was measured:
Assay in all cases: DTP human tumour cell line panel, 48 h
[1] = tested on: SK-MEL-2 melanoma
[2] = tested on: ACHN renal
[3] = tested on: EKVX NSCLC
[4] = tested on: OVCAR-4 ovarian
[5] = tested on: SF-295 CNS
[6] = tested on: SNB-19 CNS
[7] = tested on: SK-MEL-5 melanoma
[8] = tested on: A549 NSCLC
[9] = tested on: HCC-2998 colon
[10] = tested on: HOP-92 NSCLC

SMILES | GI50 [1] [µM] | TGI [1] [µM] | GI50 [2] [µM] | TGI [2] [µM] | GI50 [3] [nM] | TGI [3] [µM] | GI50 [4] [µM] | TGI [4] [µM] | GI50 [5] [nM] | TGI [5] [µM] | GI50 [6] [µM] | TGI [6] [µM] | GI50 [7] [µM] | TGI [7] [µM] | GI50 [8] [µM] | TGI [8] [µM] | GI50 [9] [µM] | TGI [9] [µM] | TGI [10] [µM] | GI50 [10] [µM]
CCC[CH2][Sn]([CH2]CCC)([O]C(=O)c1cc(OC)c(OC)cc1OC)[O]C(=O)c1cc(OC)c(OC)cc1OC | 1.26 | 2.54 | 1.62 | 3 | 1640 | 4.83 | 1.9 | 4.31 | 2280 | 5.88 | 0.626 | 1.82 | 1.6 | 3.18 | 5.14 | 18.3 | – | – | – | –
O=C(NC(=S)NNC(=S)NNc1ccccc1)c1ccccc1 | 4.11 | > 100 | 10.1 | > 100 | – | – | 11 | > 100 | 4190 | > 100 | 13 | > 100 | 3.73 | > 100 | 8.58 | > 100 | 8.53 | > 100 | – | –
Cc1ccc(S(=O)(=O)SCc2ccccc2CSS(=O)(=O)c2ccc(C)cc2)cc1 | – | – | – | > 100 | – | > 100 | – | 33.9 | – | > 100 | – | > 100 | – | > 100 | – | > 100 | – | > 100 | 51.7 | –
CCC[CH2][Ge]([CH2]CCC)([CH2]CCC)[O]C(=O)C(O)c1ccccc1 (stereo not drawn) | – | – | 4.23 | 19.8 | 309 | 15 | 0.794 | 29 | 1010 | 17.6 | 18.5 | > 63.7 | 1.46 | 13.2 | 2 | 26 | 2.69 | 14.4 | 15.8 | 0.49
O=C(NNc1ccccc1)OCc1ccccc1 | 15.7 | > 100 | 6.9 | > 100 | – | – | 18.6 | > 100 | 2810 | 28.2 | 63.9 | > 100 | 16.8 | > 100 | 9.18 | > 100 | 17.6 | > 100 | > 100 | 14.7
Nc1ccc2c(c1)CC1c3ccccc3C(C2)c2ccccc21 | – | > 100 | – | > 100 | – | – | – | > 100 | – | > 100 | – | > 100 | – | > 100 | – | > 100 | – | > 100 | > 100 | –
Nc1c(C(=O)c2cccc(C#CCN3CCOCC3)c2)cnn1-c1ccc(F)cc1 | > 15.3 | > 25 | > 25 | > 25 | – | – | > 25 | > 25 | > 6300 | > 25 | > 25 | > 25 | 8.88 | > 25 | > 16.6 | > 25 | > 25 | > 25 | > 25 | > 13
CC1=C(C(=O)CC(=O)C(=O)Nc2ccccc2)Sc2ccccc2N1 | – | > 100 | – | > 100 | – | > 100 | – | > 100 | – | > 100 | – | > 100 | – | > 100 | – | > 100 | – | – | > 100 | –
